Data: ChEMBL document CHEMBL1201862, “PubChem BioAssay data set” (2004)
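All cell lines were grown in 96-well plates and treated with compound for 48 hours. GI50 marks 50% less growth.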 Calls of active or inactive are those of the source. No stated cut-off is given here; in the data, active = GI50 up to about 1.1 µM and inactive = higher. Where a SMILES comes first, the peptide text is derived from it. The star is where a group is joined. OSu = O=C1CCC(=O)N1O*; OBn = c1ccc(CO*)cc1; Bn = c1ccc(C*)cc1

What was measured:
Assay in all cases: DTP human tumour cell line panel, 48 h
Malme-3M = test system: Malme-3M
SK-OV-3 = test system: SK-OV-3
LOX IMVI = test system: LOX IMVI
SK-MEL-28 = test system: SK-MEL-28
MOLT-4 = test system: MOLT-4
CAKI-1 = test system: CAKI-1
Hs-578T = test system: Hs-578T
SN12C = test system: SN12C
SW-620 = test system: SW-620
MDA-MB-231 = test system: MDA-MB-231
A549 = test system: A549
ACHN = test system: ACHN
786-0 = test system: 786-0
UACC-62 = test system: UACC-62
OVCAR-3 = test system: OVCAR-3
SF-539 = test system: SF-539
COLO 205 = test system: COLO 205
T47D = test system: T47D
A498 = test system: A498

Measured: GI50

CC(C)CC(NC(=O)C(N)CCC(=O)OCc1ccccc1)C(=O)NC(COCc1ccccc1)C(=O)NC(Cc1ccccc1)C(=O)ON1C(=O)CCC1=O (stereo not drawn) (H-E(OBn)LS(Bn)F-OSu; configuration not given here)
inactive: Malme-3M 29.2 µM | SK-OV-3 25.4 µM | LOX IMVI 18.2 µM | SK-MEL-28 22.1 µM | MOLT-4 25.5 µM | CAKI-1 28.8 µM | Hs-578T 26.4 µM | SN12C 29.8 µM | SW-620 37.8 µM | MDA-MB-231 18.1 µM | A549 33.6 µM | ACHN 31.6 µM | 786-0 39.1 µM | UACC-62 26.1 µM

CC(C)c1cc(C(C)C)c(Cl)c(Cl)c1O.CC(C)c1cc(Cl)c(O)c(C(C)C)c1Cl
inactive: OVCAR-3 24.5 µM | Malme-3M 24.8 µM | SF-539 20 µM | LOX IMVI 32.3 µM | SK-MEL-28 24.1 µM | CAKI-1 20.5 µM | Hs-578T 16.6 µM | SN12C 22.4 µM | SW-620 25.8 µM | MDA-MB-231 20.1 µM | A549 40.2 µM | ACHN 23.4 µM | 786-0 34.5 µM | COLO 205 20.2 µM | UACC-62 19.6 µM

Cc1ccccc1C(=O)C#Cc1cn(C2CC(O)C(CO)O2)c(=O)[nH]c1=O (stereo not drawn)
inactive: OVCAR-3 > 100 µM | Malme-3M 18.3 µM | SF-539 > 100 µM | SK-OV-3 > 100 µM | SK-MEL-28 > 100 µM | MOLT-4 16.1 µM | CAKI-1 > 100 µM | Hs-578T > 100 µM | SN12C > 100 µM | SW-620 > 100 µM | MDA-MB-231 > 100 µM | A549 > 100 µM | ACHN > 100 µM | T47D 68.2 µM | 786-0 > 100 µM | COLO 205 > 100 µM | UACC-62 > 100 µM

CCc1cccc(C)c1NC(=O)CCc1nnc(S)[nH]1
inactive: OVCAR-3 > 100 µM | Malme-3M > 100 µM | SF-539 > 100 µM | SK-OV-3 > 100 µM | LOX IMVI > 100 µM | SK-MEL-28 > 100 µM | MOLT-4 > 100 µM | CAKI-1 > 100 µM | SN12C > 100 µM | SW-620 > 100 µM | A549 > 100 µM | ACHN > 100 µM | 786-0 > 100 µM | UACC-62 > 100 µM

CCN(CC)CCn1c(C(C)(C)C)nc2ccccc21
inactive: OVCAR-3 > 100 µM | Malme-3M > 100 µM | SF-539 > 100 µM | SK-OV-3 > 100 µM | SK-MEL-28 > 100 µM | MOLT-4 > 100 µM | CAKI-1 > 100 µM | SN12C > 100 µM | SW-620 > 100 µM | A549 > 100 µM | ACHN > 100 µM | 786-0 18.7 µM | COLO 205 > 100 µM | UACC-62 > 100 µM

CCCCNC1=C(C(=O)OCC)/C(=N/NC(=O)c2ccccc2O)CO1
inactive: OVCAR-3 27.1 µM | Malme-3M 35.2 µM | SF-539 11.8 µM | SK-OV-3 > 100 µM | LOX IMVI 25.5 µM | SK-MEL-28 18.5 µM | MOLT-4 40.1 µM | CAKI-1 8.53 µM | SN12C 61 µM | A498 > 100 µM | SW-620 39 µM | A549 47.8 µM | 786-0 32.1 µM | COLO 205 > 100 µM | UACC-62 13.1 µM

N#CC(CC(=O)O)=C(c1ccccc1)c1ccccc1
inactive: OVCAR-3 > 100 µM | Malme-3M > 100 µM | SF-539 > 100 µM | SK-OV-3 > 100 µM | LOX IMVI > 100 µM | SK-MEL-28 > 100 µM | CAKI-1 > 100 µM | Hs-578T 70.1 µM | SN12C > 100 µM | A498 > 100 µM | SW-620 > 100 µM | MDA-MB-231 > 100 µM | A549 > 100 µM | ACHN > 100 µM | 786-0 > 100 µM | COLO 205 > 100 µM | UACC-62 > 100 µM

C/C(=N\NS(=O)(=O)c1ccc(C)cc1)C(CN(C)C)C(c1ccccc1)c1c(O)c2ccccc2oc1=O (stereo not drawn)
inactive: OVCAR-3 > 100 µM | Malme-3M > 100 µM | SF-539 > 100 µM | SK-OV-3 99.1 µM | LOX IMVI > 100 µM | SK-MEL-28 > 100 µM | MOLT-4 > 100 µM | CAKI-1 > 100 µM | Hs-578T > 100 µM | SN12C > 100 µM | A498 > 100 µM | SW-620 > 69.3 µM | MDA-MB-231 > 100 µM | A549 > 100 µM | ACHN > 100 µM | 786-0 > 100 µM | COLO 205 > 95.3 µM | UACC-62 > 86.3 µM

Cc1ccc(S(=O)(=O)NC(=O)Nc2ccc(C(=O)O)c(O)c2)cc1
inactive: OVCAR-3 > 100 µM | Malme-3M > 100 µM | SF-539 > 100 µM | SK-OV-3 > 100 µM | LOX IMVI > 100 µM | MOLT-4 > 100 µM | CAKI-1 > 100 µM | Hs-578T > 100 µM | A498 68.2 µM | SW-620 > 100 µM | MDA-MB-231 > 100 µM | A549 > 100 µM | ACHN > 100 µM | 786-0 > 100 µM | COLO 205 > 100 µM | UACC-62 > 100 µM

COc1ccc(-c2cc(-c3ccc(Nc4ccnc5cc(Cl)ccc45)cc3)nc(N)c2C#N)c2ccccc12
inactive: Malme-3M > 100 µM | SF-539 > 100 µM | LOX IMVI > 100 µM | SK-MEL-28 > 100 µM | MOLT-4 > 100 µM | CAKI-1 > 100 µM | SN12C > 100 µM | A498 > 100 µM | SW-620 > 100 µM | MDA-MB-231 > 100 µM | A549 > 100 µM | ACHN > 100 µM | T47D > 100 µM | 786-0 > 100 µM | COLO 205 > 100 µM | UACC-62 > 100 µM

O=C(O)CCC(NC(=O)c1ccc(CNc2nc3ccccc3nc2C(=O)O)cc1)C(=O)O (stereo not drawn)
inactive: OVCAR-3 > 100 µM | Malme-3M > 100 µM | SK-OV-3 > 100 µM | LOX IMVI > 100 µM | SK-MEL-28 > 100 µM | MOLT-4 > 100 µM | Hs-578T > 100 µM | SN12C > 100 µM | A498 > 100 µM | SW-620 > 100 µM | MDA-MB-231 > 100 µM | A549 > 100 µM | ACHN > 100 µM | 786-0 > 100 µM | COLO 205 > 100 µM | UACC-62 > 100 µM

NNC(=O)C(=O)N/N=C(\CCCC(=O)Nc1ccc(Cl)cc1)CC(=O)c1ccc(F)cc1
inactive: OVCAR-3 > 100 µM | Malme-3M > 100 µM | LOX IMVI 13.9 µM | SK-MEL-28 > 100 µM | MOLT-4 > 100 µM | SN12C > 100 µM | A498 2.66 µM | SW-620 > 100 µM | A549 > 100 µM | ACHN 17.8 µM | 786-0 > 100 µM | COLO 205 > 100 µM | UACC-62 3.43 µM

CCC(=O)Nc1ccc(NCC(=O)Nc2ccc(OC)cc2)cc1
inactive: OVCAR-3 25.2 µM | Malme-3M 21.6 µM | SF-539 17.5 µM | SK-OV-3 8.67 µM | LOX IMVI 16.6 µM | SK-MEL-28 49.1 µM | MOLT-4 39 µM | CAKI-1 13.5 µM | Hs-578T 30.3 µM | SN12C 18.1 µM | A498 27.7 µM | SW-620 35.2 µM | A549 54 µM | ACHN 40.5 µM | T47D 21.1 µM | 786-0 20.3 µM | COLO 205 31.8 µM | UACC-62 19.1 µM

CC(C)CC(NC(=O)C(COc1ccc([N+](=O)[O-])cc1)Cc1ccccc1)C(=O)Nc1ccccc1 (stereo not drawn)
inactive: OVCAR-3 41.1 µM | Malme-3M 5.02 µM | SF-539 6.68 µM | SK-OV-3 13.8 µM | LOX IMVI 48.6 µM | MOLT-4 22.1 µM | CAKI-1 28.2 µM | SN12C 37.5 µM | A498 24 µM | SW-620 24.3 µM | MDA-MB-231 21.1 µM | A549 16.1 µM | ACHN 16.8 µM | 786-0 7.08 µM | COLO 205 9.04 µM | UACC-62 11.1 µM

CC12C(=O)CC(CC1=O)C2(C)C
inactive: OVCAR-3 > 100 µM | Malme-3M > 100 µM | SK-OV-3 > 100 µM | LOX IMVI > 100 µM | SK-MEL-28 > 100 µM | MOLT-4 > 100 µM | CAKI-1 > 100 µM | Hs-578T > 100 µM | SN12C > 100 µM | SW-620 > 100 µM | A549 > 100 µM | ACHN > 100 µM | T47D > 100 µM | 786-0 > 100 µM | COLO 205 > 100 µM | UACC-62 > 100 µM

CN(C)CCN(C)P12(Oc3ccccc3O1)Oc1c(Cl)c(Cl)c(Cl)c(Cl)c1O2
inactive: OVCAR-3 27.9 µM | Malme-3M 46.6 µM | SK-OV-3 > 100 µM | LOX IMVI 63 µM | SK-MEL-28 > 100 µM | MOLT-4 34 µM | SN12C 42.6 µM | A498 60.5 µM | SW-620 47.4 µM | MDA-MB-231 69.8 µM | A549 46.9 µM | ACHN 39.8 µM | T47D 59.8 µM | 786-0 54.6 µM | COLO 205 > 100 µM | UACC-62 33.3 µM

CN1C(CC(O)c2ccccc2)CCCC1CC(O)(c1ccccc1)c1ccccc1 (stereo not drawn)
inactive: OVCAR-3 15.6 µM | Malme-3M 18.2 µM | SF-539 13.6 µM | SK-OV-3 21.4 µM | LOX IMVI 20.3 µM | SK-MEL-28 16 µM | MOLT-4 17.5 µM | CAKI-1 75.2 µM | SN12C 17.8 µM | SW-620 19.4 µM | MDA-MB-231 22.6 µM | A549 22.1 µM | ACHN 19.7 µM | T47D 21 µM | 786-0 15.7 µM | COLO 205 16.4 µM | UACC-62 21 µM
